This note sets out measurements from PubChem BioAssay (NCI).

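These data come from cells grown in 96-well plates and exposed to compound for 48 hours at five concentrations. At the TGI there is no net growth.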

Among the test systems are BT-549 breast; HT29 colon; RXF 393 renal; NCI-H226 lung; NCI/ADR-RES ovarian; LOX IMVI melanoma; OVCAR-8 ovarian; MDA-MB-435; T-47D breast; MCF7 breast; SNB-75 CNS; SN12C renal; SK-OV-3 ovarian; SF-295 CNS; IGROV1 ovarian; SNB-19 CNS; HS 578T breast; DU-145 prostate; COLO 205 colon; SR leukemia.
Common to all, as to experiment: inhibition of tumour cell growth, NCI panel, 48 h

As for `Cc1cccc(C)c1NC(=O)C(=O)CC(=O)/C=C/c1ccccc1`, the TGI with BT-549 breast, with HT29 colon, with RXF 393 renal, in the assay on NCI-H226 lung, in the assay with NCI/ADR-RES ovarian and in the assay on LOX IMVI melanoma was > 100 µM throughout. Also, the TGI in the assay on OVCAR-8 ovarian, in the assay with MDA-MB-435, in the assay with T-47D breast, in the assay on MCF7 breast, in the assay on SNB-75 CNS and in the assay with SN12C renal was > 100 µM each time. The TGI in the assay with SK-OV-3 ovarian, in the assay on SF-295 CNS, in the assay with IGROV1 ovarian, with SNB-19 CNS and with HS 578T breast was > 100 µM throughout.
For `CCN1C(=O)C(=C/C=C/C=C2/N(C)c3ccccc3C2(C)C)C(=O)N(CC)C1=S`, the TGI in the assay with BT-549 breast is 70.9 µM; with HT29 colon it was > 100 µM; with RXF 393 renal, > 100 µM; in the assay on NCI-H226 lung, > 100 µM; in the assay with NCI/ADR-RES ovarian, > 100 µM; in the assay on LOX IMVI melanoma, > 100 µM. For the same compound, the TGI with OVCAR-8 ovarian, in the assay with MDA-MB-435, in the assay on T-47D breast, in the assay on MCF7 breast, in the assay with SNB-75 CNS and with SN12C renal was > 100 µM in each case. Further, the TGI in the assay with SK-OV-3 ovarian, in the assay on SF-295 CNS, in the assay on DU-145 prostate, in the assay on IGROV1 ovarian, with SNB-19 CNS and in the assay with COLO 205 colon was > 100 µM each time. In addition, the TGI in the assay with HS 578T breast is > 100 µM.
With `COc1cc2nc(-c3cccs3)nc(N3CCN(c4ccccc4C(F)(F)F)CC3)c2cc1OC`, the TGI in the assay on BT-549 breast, in the assay on HT29 colon, with NCI-H226 lung, in the assay on NCI/ADR-RES ovarian, in the assay with LOX IMVI melanoma and with OVCAR-8 ovarian was > 100 µM each time. For the same compound, the TGI in the assay on MDA-MB-435, in the assay with T-47D breast, in the assay with MCF7 breast, in the assay with SNB-75 CNS, in the assay with SN12C renal and in the assay with SK-OV-3 ovarian was > 100 µM each time. Also, the TGI with SF-295 CNS, with DU-145 prostate, with IGROV1 ovarian, with SNB-19 CNS, in the assay on COLO 205 colon and in the assay with HS 578T breast was > 100 µM each time.
Turning to `COc1ccc2nccc(SCC(=O)O)c2c1`, the TGI in the assay on BT-549 breast, in the assay on HT29 colon, with RXF 393 renal, in the assay with NCI-H226 lung, in the assay with NCI/ADR-RES ovarian and in the assay on LOX IMVI melanoma was > 100 µM in each case. Besides, the TGI with OVCAR-8 ovarian, in the assay with MDA-MB-435, with T-47D breast, with SN12C renal, in the assay on SF-295 CNS and with SR leukemia was > 100 µM throughout. Besides, the TGI with DU-145 prostate, in the assay on IGROV1 ovarian, with SNB-19 CNS and in the assay on HS 578T breast was > 100 µM throughout.
As to `O=C1/C(=C/c2ccc(OC(=O)c3ccccc3)cc2)CCC/C1=C\c1ccc(OC(=O)c2ccccc2)cc1`, the TGI with BT-549 breast, in the assay with HT29 colon, in the assay on NCI/ADR-RES ovarian, with LOX IMVI melanoma, in the assay on OVCAR-8 ovarian and with MDA-MB-435 was > 100 µM each time. The TGI in the assay with T-47D breast, with MCF7 breast, with SNB-75 CNS, with SN12C renal, in the assay with SF-295 CNS and in the assay on SR leukemia was > 100 µM throughout. For the same compound, the TGI with DU-145 prostate, in the assay on IGROV1 ovarian, in the assay on SNB-19 CNS, in the assay with COLO 205 colon and in the assay with HS 578T breast was > 100 µM each time.
Consider `C/C(=N\n1c(Cc2ccccc2)n[nH]c1=O)c1ccccc1`, for which the TGI in the assay with BT-549 breast, in the assay on HT29 colon, in the assay with RXF 393 renal, in the assay with NCI-H226 lung, with NCI/ADR-RES ovarian and in the assay with LOX IMVI melanoma was > 100 µM each time. Moreover, the TGI in the assay on OVCAR-8 ovarian, in the assay with MDA-MB-435, in the assay on T-47D breast, with MCF7 breast, with SN12C renal and in the assay on DU-145 prostate was > 100 µM in each case. Also, the TGI in the assay with IGROV1 ovarian, in the assay with SNB-19 CNS, in the assay with COLO 205 colon and with HS 578T breast was > 100 µM in each case.
Turning to `CCCSc1ccc2[nH]c(/N=C/c3ccccc3)cc2c1`, the TGI in the assay on BT-549 breast was 97.2 µM; in the assay with HT29 colon, > 100 µM; with RXF 393 renal, 42.7 µM; in the assay with NCI/ADR-RES ovarian it was 47.9 µM; in the assay with LOX IMVI melanoma, 32.5 µM; in the assay on OVCAR-8 ovarian, 56.2 µM. The TGI is > 100 µM with MDA-MB-435; > 100 µM in the assay on T-47D breast; > 100 µM with SNB-75 CNS; 45.7 µM with SN12C renal; 27.8 µM with SR leukemia; > 100 µM in the assay on DU-145 prostate. Also, the values for the TGI in the assay on IGROV1 ovarian, with COLO 205 colon and with HS 578T breast were > 100 µM, 44.5 µM and 62.1 µM, respectively.
As to `CC1(C)CC2=C(Sc3ccccc3N2)C(=O)C1C(=O)C(=O)Nc1cccc([N+](=O)[O-])c1` (stereo not given), the TGI with BT-549 breast, in the assay on HT29 colon, with NCI-H226 lung, in the assay on NCI/ADR-RES ovarian, in the assay on LOX IMVI melanoma and in the assay with OVCAR-8 ovarian was > 100 µM in each case. Moreover, the TGI in the assay with MDA-MB-435, in the assay with T-47D breast, with MCF7 breast, in the assay with SNB-75 CNS, in the assay on SN12C renal and with SK-OV-3 ovarian was > 100 µM each time. The TGI in the assay with SF-295 CNS, in the assay on DU-145 prostate, in the assay on IGROV1 ovarian, in the assay on SNB-19 CNS, in the assay with COLO 205 colon and in the assay with HS 578T breast was > 100 µM in each case.
Consider `Clc1ccc(OCc2nnc(CCCCCCCCc3nnc(COc4ccc(Cl)cc4Cl)n3Nc3ccccc3)n2Nc2ccccc2)c(Cl)c1`, for which the TGI with BT-549 breast worked out at 49.7 µM; in the assay with HT29 colon, 35.8 µM; with RXF 393 renal, 40.8 µM; in the assay with NCI-H226 lung it was 38 µM; in the assay with NCI/ADR-RES ovarian, 51.8 µM; in the assay with LOX IMVI melanoma, 34.3 µM. The TGI in the assay on OVCAR-8 ovarian was 50.3 µM; with MDA-MB-435, 19.5 µM; with T-47D breast, > 100 µM; with MCF7 breast it was 45.6 µM; with SNB-75 CNS it was 70.3 µM; in the assay with SN12C renal, 38.1 µM. Also, the TGI was 39.8 µM in the assay on SK-OV-3 ovarian; 17.3 µM in the assay on SF-295 CNS; > 62.7 µM in the assay on DU-145 prostate; 47.7 µM in the assay on IGROV1 ovarian; > 61.9 µM in the assay on SNB-19 CNS; 3.38 µM in the assay on COLO 205 colon. The compound further came in with a TGI in the assay on HS 578T breast of 31.4 µM.
Consider `COC(=O)c1ccc(NC(=O)O/N=C(\Cl)C(C)C)cc1`, for which the TGI with BT-549 breast was 8.94 µM; with HT29 colon it was 29.4 µM; in the assay on RXF 393 renal, 19.6 µM; in the assay on NCI-H226 lung, > 53.6 µM; in the assay on NCI/ADR-RES ovarian it was 16.7 µM; in the assay with LOX IMVI melanoma it was 4.02 µM. Moreover, the TGI with OVCAR-8 ovarian amounted to 32.5 µM; with MDA-MB-435, 25.5 µM; in the assay on T-47D breast it was 5.02 µM; with MCF7 breast it was 19.1 µM; in the assay on SNB-75 CNS it was 26.3 µM; in the assay on SN12C renal it was 13.9 µM. Moreover, the TGI came out at 31.7 µM in the assay on SK-OV-3 ovarian; 33.3 µM in the assay on SF-295 CNS; 35.1 µM in the assay on DU-145 prostate; 27.6 µM in the assay on IGROV1 ovarian; 31.8 µM in the assay on SNB-19 CNS; 3.72 µM in the assay with COLO 205 colon. The TGI in the assay with HS 578T breast is > 66.7 µM.
Take `CN=c1c2c(c3[nH]c4ccccc4c4cnc1c34)NCCC2=O`: the TGI in the assay with BT-549 breast, with HT29 colon, in the assay with RXF 393 renal, with NCI-H226 lung, in the assay on NCI/ADR-RES ovarian and in the assay on OVCAR-8 ovarian was > 10 µM throughout. Moreover, the TGI with MDA-MB-435, in the assay on T-47D breast, with MCF7 breast, with SNB-75 CNS, with SN12C renal and in the assay with SK-OV-3 ovarian was > 10 µM each time. Moreover, the TGI in the assay on SF-295 CNS, in the assay on DU-145 prostate, with IGROV1 ovarian, in the assay with SNB-19 CNS, in the assay on COLO 205 colon and in the assay on HS 578T breast was > 10 µM in each case.
With `CCCCCCCCCCCCN1[C@H]2CCC[C@H]2C(O)[C@@H]2CCC[C@@H]21` (stereo not given in full), the TGI with BT-549 breast, in the assay with HT29 colon, with RXF 393 renal, in the assay on NCI-H226 lung, in the assay on NCI/ADR-RES ovarian and in the assay on LOX IMVI melanoma was > 100 µM throughout. The TGI with OVCAR-8 ovarian is > 100 µM; in the assay with MDA-MB-435, > 100 µM; in the assay with T-47D breast, 88.2 µM; in the assay with SNB-75 CNS it was > 100 µM; with SN12C renal it was > 100 µM; with SK-OV-3 ovarian, > 100 µM. Further, the TGI in the assay with SR leukemia, in the assay with DU-145 prostate, in the assay with IGROV1 ovarian, with SNB-19 CNS, in the assay with COLO 205 colon and in the assay on HS 578T breast was > 100 µM in each case.
With `Nc1nc(N)c2cc(-c3ccccc3)cnc2n1`, the TGI was 30.2 µM with BT-549 breast; 21 µM with HT29 colon; 22.5 µM with RXF 393 renal; 33.1 µM with NCI-H226 lung; > 100 µM with NCI/ADR-RES ovarian; 37.6 µM in the assay with LOX IMVI melanoma. Moreover, the TGI in the assay on OVCAR-8 ovarian was 57.4 µM; in the assay on T-47D breast it was > 100 µM; in the assay on MCF7 breast, 44.1 µM; in the assay with SNB-75 CNS, 17.3 µM; with SN12C renal it was 29.1 µM; in the assay with SK-OV-3 ovarian, > 100 µM. The TGI in the assay on SF-295 CNS was determined as 33 µM; in the assay on SR leukemia, 21.2 µM; in the assay with IGROV1 ovarian it was 26.8 µM; in the assay on SNB-19 CNS, 38.3 µM; with COLO 205 colon it was 27.3 µM; in the assay with HS 578T breast, 46.2 µM.
For the compound `O=S(CC1(O)CCCCC1)c1ccccc1` (stereo not given), the TGI in the assay with BT-549 breast, in the assay with HT29 colon, with RXF 393 renal, in the assay with NCI-H226 lung, in the assay on NCI/ADR-RES ovarian and in the assay on LOX IMVI melanoma was > 100 µM throughout. In addition, the TGI in the assay with OVCAR-8 ovarian, with T-47D breast, in the assay on MCF7 breast, with SNB-75 CNS, with SN12C renal and with SK-OV-3 ovarian was > 100 µM throughout. Besides, the TGI in the assay with SF-295 CNS, in the assay with SR leukemia, in the assay with DU-145 prostate, with IGROV1 ovarian, in the assay with SNB-19 CNS and with COLO 205 colon was > 100 µM in each case. Besides, the TGI in the assay on HS 578T breast is > 100 µM.
For the compound `O=C(Nc1ccccc1)c1cc2ccccc2c(N=Nc2ccc([N+](=O)[O-])cc2)c1O`, the TGI in the assay with BT-549 breast, in the assay with HT29 colon, in the assay with RXF 393 renal, in the assay on NCI-H226 lung, in the assay with NCI/ADR-RES ovarian and with LOX IMVI melanoma was > 100 µM throughout. In addition, the TGI in the assay on OVCAR-8 ovarian, in the assay on MDA-MB-435, in the assay on T-47D breast, with SNB-75 CNS, with SN12C renal and in the assay with SK-OV-3 ovarian was > 100 µM in each case. Further, the TGI with SF-295 CNS, in the assay on DU-145 prostate, in the assay on IGROV1 ovarian, in the assay on SNB-19 CNS, with COLO 205 colon and in the assay with HS 578T breast was > 100 µM throughout.
